The record followed here is patent publication US12479856B2, “Pharmaceutical compounds for the treatment of complement mediated disorders” (Achillion Pharmaceuticals, Inc., priority 2019, dated 2025).

The target of the first test is T1, Human complement C1s enzyme (Homo sapiens, UniProt P09871).
T1 construct: purified from human serum, Complement Technology, Inc; purchased Complement Technology, Inc; host or cells: human serum (plasma-derived natural protein)
T1 sequence (P09871 438-688 limits assumed): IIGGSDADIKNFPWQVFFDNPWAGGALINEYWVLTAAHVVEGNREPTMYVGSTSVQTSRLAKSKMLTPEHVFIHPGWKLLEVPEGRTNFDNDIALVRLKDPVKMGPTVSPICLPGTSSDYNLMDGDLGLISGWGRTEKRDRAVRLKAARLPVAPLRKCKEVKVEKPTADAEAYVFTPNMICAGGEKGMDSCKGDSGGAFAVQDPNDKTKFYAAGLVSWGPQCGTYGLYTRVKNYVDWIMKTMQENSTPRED
T1 sequence (P09871 16-437 partner limits assumed): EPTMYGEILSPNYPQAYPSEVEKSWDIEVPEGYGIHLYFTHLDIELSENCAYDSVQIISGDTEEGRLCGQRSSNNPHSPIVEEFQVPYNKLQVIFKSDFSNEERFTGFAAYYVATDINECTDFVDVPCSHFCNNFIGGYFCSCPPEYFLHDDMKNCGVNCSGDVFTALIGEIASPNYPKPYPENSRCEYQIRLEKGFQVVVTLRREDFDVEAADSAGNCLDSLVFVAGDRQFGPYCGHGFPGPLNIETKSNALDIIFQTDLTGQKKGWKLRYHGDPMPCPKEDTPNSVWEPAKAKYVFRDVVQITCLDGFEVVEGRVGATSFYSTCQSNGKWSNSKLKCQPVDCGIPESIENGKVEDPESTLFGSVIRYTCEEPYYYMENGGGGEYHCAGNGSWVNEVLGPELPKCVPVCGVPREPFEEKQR
In words: Human C1s Enzyme Assay. Type of test: biochemical. The following applies: Table 1; C1s purified from human serum, 1.16 nM; substrate Z-L-Lys-SBzl; read-out: C1s Protease Activity. The protocol: Example 4. Human C1s Enzyme Assay
Human complement C1s enzyme (purified from human serum, Complement Technology, Inc.) at 1.16 nM final concentration is incubated with test compound at various concentrations for 5 min at room temperature in 50 mM Tris, 1 M NaCl, pH 7.5. A synthetic substrate Z-L-Lys-SBzl and DTNB (Ellman's reagent) are added to final concentrations of 100 μM each. Absorbance at 405 nm (A405) is recorded at 30 second intervals for 30 min using a microplate spectrophotometer. IC50 values are calculated by nonlinear regression of complement C1s reaction rates as a function of test compound concentration.
On to `N=C(N)c1ccc(CNC(=O)[C@@H]2CC3(CN2C(=O)CNC(=O)c2ccc(Oc4ccccc4)cc2)OCCO3)cc1` [Compound 19, (8S)—N-[(4-Carbamimidoylphenyl)methyl]-7-{2-[(4-phenoxyphenyl)formamido]acetyl}-1,4-dioxa-7-azaspiro[4.4]nonane-8-carboxamide], for which the IC50 is under 100 nM.
For `Nc1ccc(CCNC(=O)[C@@H]2CC3(CN2C(=O)CNC(=O)c2ccc(Oc4ccccc4)cc2)OCCO3)cc1` [Compound 23, (8S)—N-[2-(4-Aminophenyl)ethyl]-7-{2-[(4-phenoxyphenyl)formamido]acetyl}-1,4-dioxa-7-azaspiro[4.4]nonane-8-carboxamide], the IC50 was over 1000 nM.
Same read-out and setting: the same measure for `C[C@@]12C[C@@H](C(=O)NCc3cc(C(=N)N)cs3)N(C(=O)CNC(=O)c3ccc(Oc4ccccc4)cc3)[C@@H]1C2` [Compound 8, (1R,3S,5R)—N-[(4-Carbamimidoylthiophen-2-yl)methyl]-5-methyl-2-{2-[(4-phenoxyphenyl)formamido]acetyl}-2-azabicyclo[3.1.0]hexane-3-carboxamide]: under 100 nM.
On to `CO[C@@H]1C[C@@H](C(=O)NCc2cc(C(=N)N)cs2)N(C(=O)CNC(=O)c2ccc(Oc3ccccc3)cc2)C1` [Compound 32, (2S,4R)—N-[(4-carbamimidoylthiophen-2-yl)methyl]-4-methoxy-1-{2-[(4-phenoxyphenyl)formamido]acetyl}pyrrolidine-2-carboxamide], for which the IC50 was under 100 nM.
The same measure, in the same setting: with `CO[C@H]1C[C@H](C(=O)CNC(=O)c2ccc(Oc3ccccc3)cc2)[C@H](C(=O)NCc2cc(C(=N)N)cs2)C1` [Compound 34, N-(2-((1S,2R,4S)-2-(((4-carbamimidoylthiophen-2-yl)methyl)carbamoyl)-4-methoxycyclopentyl)-2-oxoethyl)-4-phenoxybenzamide] the figure was over 1000 nM; with `N=C(N)c1csc(CNC(=O)[C@H]2CCCN2C(=O)CNC(=O)c2ccc(Oc3ccccc3)cc2)c1` [Compound 5, (2R)—N-[(4-Carbamimidoylthiophen-2-yl)methyl]-1-{2-[(4-phenoxyphenyl)-formamido]acetyl}pyrrolidine-2-carboxamide], over 1000 nM.
Still for that read-out and setting: the same measure for `N=C(N)c1csc(CNC(=O)C2CC3(CC3)CN2C(=O)CNC(=O)c2ccc(Oc3ccccc3)cc2)c1` (stereo not drawn) [Compound 10, N-[(4-Carbamimidoylthiophen-2-yl)methyl]-5-{2-[(4-phenoxyphenyl)formamido]acetyl}-5-azaspiro[2.4]heptane-6-carboxamide]: 100 to 1000 nM.
The same measure, in the same setting: with `N=C(N)c1csc(CNC(=O)[C@@H]2CN2C(=O)CNC(=O)c2ccc(Oc3ccccc3)cc2)c1` [Compound 14, (2S)—N-[(4-Carbamimidoylthiophen-2-yl)methyl]-1-{2-[(4-phenoxyphenyl)formamido]acetyl}aziridine-2-carboxamide] the figure was 100 to 1000 nM.

The same test, now with this note: Table 2; C1s purified from human serum, 1.16 nM; substrate Z-L-Lys-SBzl; read-out: C1s Protease Activity.
Consider `Cc1cc(C(=O)NCC(=O)N2CC3(C[C@H]2C(=O)NCc2cc(C(=N)N)cs2)OCCO3)ccc1Oc1ccccc1` [Compound 47, (S)-N-((4-carbamimidoylthiophen-2-yl)methyl)-7-((3-methyl-4-phenoxybenzoyl)glycyl)-1,4-dioxa-7-azaspiro[4.4]nonane-8-carboxamide], for which the IC50 is under 100 nM.
The same measure, in the same setting: with `Cc1cc(C(=O)NCC(=O)N2CC3(C[C@H]2C(=O)NCc2nc(C(=N)N)cs2)OCCO3)ccc1Oc1ccccc1` [Compound 49, (S)-N-((4-carbamimidoylthiazol-2-yl)methyl)-7-((3-methyl-4-phenoxybenzoyl)glycyl)-1,4-dioxa-7-azaspiro[4.4]nonane-8-carboxamide] the figure was under 100 nM.
In the case of `CCCCCc1cc(C(=O)NCC(=O)N2CCC[C@H]2C(=O)NCc2cc(C(=N)N)cs2)ccc1Oc1ccccc1` [Compound 42, (S)-N-((4-carbamimidoylthiophen-2-yl)methyl)-1-((3-pentyl-4-phenoxybenzoyl)glycyl)pyrrolidine-2-carboxamide], the IC50 is under 100 nM.
Same read-out and setting: with `N=C(N)c1csc(CNC(=O)[C@@H]2CCCN2C(=O)CNC(=O)c2ccc(Cc3ccccc3)cc2)c1` [Compound 56, (S)-1-((4-benzylbenzoyl)glycyl)-N-((4-carbamimidoylthiophen-2-yl)methyl)pyrrolidine-2-carboxamide] the figure was under 100 nM.
On the same count and under the same terms, with `CO[C@@H]1C[C@H](C(=O)NCc2cc(C(=N)N)cs2)[C@H](C(=O)CNC(=O)c2ccc(Oc3ccccc3)cc2)C1` [Compound 61, N-(2-((1R,2S,4S)-2-(((4-carbamimidoylthiophen-2-yl)methyl)carbamoyl)-4-methoxycyclopentyl)-2-oxoethyl)-4-phenoxybenzamide] the figure was over 1000 nM; with `N=C(N)c1csc(CNC(=O)[C@@H]2CCCN2C(=O)CNC(=O)CCCCOc2ccccc2)c1` [Compound 68, (S)-N-((4-carbamimidoylthiophen-2-yl)methyl)-1-((5-phenoxypentanoyl)glycyl)pyrrolidine-2-carboxamide], under 100 nM.
The same measure, in the same setting: the same measure for `CN(C)CCCC(=O)NCC(=O)N1CCC[C@H]1C(=O)NCc1cc(C(=N)N)cs1` [Compound 69, (S)-N-((4-carbamimidoylthiophen-2-yl)methyl)-1-((4-(dimethylamino)butanoyl)glycyl)pyrrolidine-2-carboxamide]: over 1000 nM; for `N=C(N)c1csc(CNC(=O)[C@@H]2CCCN2CCCCc2ccc(Oc3ccccc3)cc2)c1` [Compound 37, (S)-N-((4-carbamimidoylthiophen-2-yl)methyl)-1-(4-(4-phenoxyphenyl)butyl)pyrrolidine-2-carboxamide]: over 1000 nM; for `C[C@H](OCc1ccccc1)[C@H](OCc1ccccc1)[C@@H](OCc1ccccc1)[C@H](CN(CC(=O)N1CC2(C[C@H]1C(=O)NCc1nc(C(=N)N)cs1)OCCO2)C(=O)OCc1ccccc1)OCc1ccccc1` [Compound 89, benzyl (2-((S)-8-(((4-carbamimidoylthiazol-2-yl)methyl)carbamoyl)-1,4-dioxa-7-azaspiro[4.4]nonan-7-yl)-2-oxoethyl)((2S,3S,4S,5S)-2,3,4,5-tetrakis(benzyloxy)hexyl)carbamate]: over 1000 nM.
With `CCCCCCC(=O)NCC(=O)N1CCC[C@H]1C(=O)NCc1cc(C(=N)N)cs1` [Compound 83, (S)-N-((4-carbamimidoylthiophen-2-yl)methyl)-1-(heptanoylglycyl)pyrrolidine-2-carboxamide], the IC50 was 100 to 1000 nM.

The same test, now with this note: Table 3; C1s purified from human serum, 1.16 nM; substrate Z-L-Lys-SBzl; read-out: C1s Protease Activity.
For the compound `C[C@@]12C[C@@H]1N(C(=O)CNC(=O)c1ccc(Oc3ccccc3)cc1)[C@H](C(=O)NCc1cc(C#N)cs1)C2` [Compound 93, (1S,3S,5S)-N-((4-cyanothiophen-2-yl)methyl)-5-methyl-2-((4-phenoxybenzoyl)glycyl)-2-azabicyclo[3.1.0]hexane-3-carboxamide], the IC50 is over 1000 nM.
Same read-out and setting: the same measure for `N=C(N)c1csc(CNC(=O)[C@@H]2C[C@H](Oc3cccc(F)c3)CN2C(=O)CNC(=O)c2ccc(Oc3ccccc3)cc2)c1` [Compound 108, (2S,4S)-N-((4-carbamimidoylthiophen-2-yl)methyl)-4-(3-fluorophenoxy)-1-((4-phenoxybenzoyl)glycyl)pyrrolidine-2-carboxamide]: under 100 nM.
Same read-out and setting: the same measure for `N=C(N)c1csc(CNC(=O)C2C3CCC(C3)N2C(=O)CNC(=O)c2ccc(Oc3ccccc3)cc2)c1` (stereo in doubt) [Compound 96, (1R,3R,4S)-N-((4-carbamimidoylthiophen-2-yl)methyl)-2-((4-phenoxybenzoyl)glycyl)-2-azabicyclo[2.2.1]heptane-3-carboxamide]: under 100 nM.
